Test system: 994946-033-R-J1-PDC complex spheroid viability
Experiment: Anticancer human tumor 994946-033-R-J1-PDC patient-derived melanoma cell line growth inhibition [POLQ]
Conditions: for IC50: curve of first compound; for viability, T/C: stronger effect = lower value
Summary of the method: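 Patient-derived tumour cells were co-cultured with HUVEC and mesenchymal stem cells as multicellular spheroids at 37 °C. They were treated with POLQ inhibitors (novobiocin, ART-558, RP6685) alone or combined with other agents. Top concentrations were at or near clinical Cmax (otherwise 10 microM; SN-38 at 1 microM), decreasing in half-log steps.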

[1] = second compound 0.0316 µM, first compound 0.0316 µM
[2] = second compound 0.0316 µM, first compound 0.1 µM
[3] = second compound 0.0316 µM, first compound 0.316 µM
[4] = second compound 0.0316 µM, first compound 1 µM
[5] = second compound 0.0316 µM, first compound 3.16 µM
[6] = second compound 0.0316 µM, first compound 10 µM
[7] = second compound 0.1 µM, first compound 0.0316 µM
[8] = second compound 0.1 µM, first compound 0.1 µM
[9] = second compound 0.1 µM, first compound 0.316 µM
[10] = second compound 0.1 µM, first compound 1 µM
[11] = second compound 0.1 µM, first compound 3.16 µM
[12] = second compound 0.1 µM, first compound 10 µM
[13] = second compound 0.316 µM, first compound 0.0316 µM
[14] = second compound 0.316 µM, first compound 0.1 µM
[15] = second compound 0.316 µM, first compound 0.316 µM
[16] = second compound 0.316 µM, first compound 1 µM
[17] = second compound 0.316 µM, first compound 3.16 µM
[18] = second compound 0.316 µM, first compound 10 µM
[19] = second compound 1 µM, first compound 0.0316 µM
[20] = second compound 1 µM, first compound 0.1 µM
[21] = second compound 1 µM, first compound 0.316 µM
[22] = second compound 1 µM, first compound 1 µM
[23] = second compound 1 µM, first compound 3.16 µM
[24] = second compound 1 µM, first compound 10 µM
[25] = second compound 3.16 µM, first compound 0.0316 µM
[26] = second compound 3.16 µM, first compound 0.1 µM
[27] = second compound 3.16 µM, first compound 0.316 µM
[28] = second compound 3.16 µM, first compound 1 µM
[29] = second compound 3.16 µM, first compound 3.16 µM
[30] = second compound 3.16 µM, first compound 10 µM
[31] = second compound 10 µM, first compound 0.0316 µM
[32] = second compound 10 µM, first compound 0.1 µM
[33] = second compound 10 µM, first compound 0.316 µM
[34] = second compound 10 µM, first compound 1 µM
[35] = second compound 10 µM, first compound 3.16 µM
[36] = second compound 10 µM, first compound 10 µM
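Note: spheroids exposed to drugs for 7 days.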
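Throughout, for viability, T/C: 100% = DMSO vehicle treated spheroids.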

Question: What does the source list for `Nc1ccn(C2OC(CO)C(O)C2(F)F)c(=O)n1` (stereo unspecified) + Nc1ccc(C#CCN(C(=O)Cc2ncc(C(F)(F)F)cc2C(F)(F)F)c2ccc(F)cc2)nn1?
Answer: IC50 (second compound 0.0316 µM): < 0.0316 µM; IC50 (second compound 0.1 µM): < 0.0316 µM; IC50 (second compound 0.316 µM): < 0.0316 µM; IC50 (second compound 1 µM): < 0.0316 µM; IC50 (second compound 3.16 µM): 0.0355 µM; IC50 (second compound 10 µM): 0.12 µM; viability, T/C [1]: 19.8%; viability, T/C [2]: 9.8%; viability, T/C [3]: 13.9%; viability, T/C [4]: 6.8%; viability, T/C [5]: 9.12%; viability, T/C [6]: 4.73%; viability, T/C [7]: 13.4%; viability, T/C [8]: 6.85%; viability, T/C [9]: 7.22%; viability, T/C [10]: 8.61%; viability, T/C [11]: 6.71%; viability, T/C [12]: 2.46%; viability, T/C [13]: 26.9%; viability, T/C [14]: 10.2%; viability, T/C [15]: 6.41%; viability, T/C [16]: 6.86%; viability, T/C [17]: 5.84%; viability, T/C [18]: 3.65%; viability, T/C [19]: 49.5%; viability, T/C [20]: 11.8%; viability, T/C [21]: 7.84%; viability, T/C [22]: 6.62%; viability, T/C [23]: 5.64%; viability, T/C [24]: 2.7%; viability, T/C [25]: 53.2%; viability, T/C [26]: 22.4%; viability, T/C [27]: 8.85%; viability, T/C [28]: 9.68%; viability, T/C [29]: 8.92%; viability, T/C [30]: 3.34%; viability, T/C [31]: 75.5%; viability, T/C [32]: 56.2%; viability, T/C [33]: 17.5%; viability, T/C [34]: 7.83%; viability, T/C [35]: 11.2%; viability, T/C [36]: 6.31%

Question: `CC(C)n1c(=O)n(C)c2cnc3cc(F)c(-c4ccc(OCCCN5CCCCC5)nc4)cc3c21` + COC1C(OC(N)=O)C(O)C(Oc2ccc3c(O)c(NC(=O)c4ccc(O)c(CC=C(C)C)c4)c(=O)oc3c2C)OC1(C)C was tested. Which IC50 (second compound 0.0316 µM) did it give?
Answer: Its IC50 is 4.59 µM.

Question: And the IC50 (second compound 0.1 µM)?
Answer: Its IC50 is 5.03 µM.

Question: And the IC50 (second compound 0.316 µM)?
Answer: The IC50 was 8.57 µM.

Question: What about the IC50 (second compound 1 µM) of the same compound?
Answer: The IC50 was 5.25 µM.

Question: What about the IC50 (second compound 3.16 µM) of the same compound?
Answer: Its IC50 is over 10 µM.

Question: And the IC50 (second compound 10 µM)?
Answer: Its IC50 is 6.35 µM.

Question: And the viability, T/C [1]?
Answer: Its viability, T/C is 81.5%.

Question: What about the viability, T/C [2] of the same compound?
Answer: Its viability, T/C is 65.5%.

Question: What about the viability, T/C [3] of the same compound?
Answer: Its viability, T/C is 81.1%.

Question: And the viability, T/C [4]?
Answer: Its viability, T/C is 59.1%.

Question: And the viability, T/C [5]?
Answer: Its viability, T/C is 60%.

Question: And the viability, T/C [6]?
Answer: The viability, T/C was 36.8%.

Question: And the viability, T/C [7]?
Answer: Its viability, T/C is 73.7%.

Question: And the viability, T/C [8]?
Answer: Its viability, T/C is 100%.

Question: What about the viability, T/C [9] of the same compound?
Answer: The viability, T/C was 78.3%.

Question: What about the viability, T/C [10] of the same compound?
Answer: The viability, T/C was 69.8%.

Question: And the viability, T/C [11]?
Answer: Its viability, T/C is 65.2%.

Question: What about the viability, T/C [12] of the same compound?
Answer: The viability, T/C was 31.6%.

Question: What about the viability, T/C [13] of the same compound?
Answer: Its viability, T/C is 74.5%.

Question: And the viability, T/C [14]?
Answer: The viability, T/C was 76.7%.

Question: And the viability, T/C [15]?
Answer: Its viability, T/C is 68.2%.

Question: And the viability, T/C [16]?
Answer: Its viability, T/C is 68.3%.

Question: And the viability, T/C [17]?
Answer: The viability, T/C was 79.8%.

Question: What about the viability, T/C [18] of the same compound?
Answer: Its viability, T/C is 46.5%.

Question: What about the viability, T/C [19] of the same compound?
Answer: The viability, T/C was 86.7%.

Question: What about the viability, T/C [20] of the same compound?
Answer: The viability, T/C was 86.5%.

Question: And the viability, T/C [21]?
Answer: The viability, T/C was 87%.

Question: And the viability, T/C [22]?
Answer: The viability, T/C was 102%.

Question: And the viability, T/C [23]?
Answer: The viability, T/C was 64.5%.

Question: And the viability, T/C [24]?
Answer: The viability, T/C was 31.6%.

Question: And the viability, T/C [25]?
Answer: The viability, T/C was 81.8%.

Question: And the viability, T/C [26]?
Answer: The viability, T/C was 68.5%.

Question: And the viability, T/C [27]?
Answer: The viability, T/C was 92.9%.

Question: And the viability, T/C [28]?
Answer: The viability, T/C was 93.8%.

Question: And the viability, T/C [29]?
Answer: The viability, T/C was 66.1%.

Question: What about the viability, T/C [30] of the same compound?
Answer: Its viability, T/C is 50.6%.

Question: And the viability, T/C [31]?
Answer: The viability, T/C was 76.1%.

Question: And the viability, T/C [32]?
Answer: Its viability, T/C is 65.9%.

Question: And the viability, T/C [33]?
Answer: Its viability, T/C is 66.1%.

Question: And the viability, T/C [34]?
Answer: Its viability, T/C is 82%.

Question: And the viability, T/C [35]?
Answer: The viability, T/C was 62.1%.

Question: And the viability, T/C [36]?
Answer: Its viability, T/C is 40.1%.

Question: What does the source list for `C#Cc1c(F)ccc2cc(O)cc(-c3ncc4c(N5CC6CCC(C5)N6)nc(OCC56CCCN5CC(F)C6)nc4c3F)c12` (stereo unspecified) + Cc1cccc(N(C)C(=O)C2C(O)CCN2c2nc(C)cc(C(F)(F)F)c2C#N)c1?
Answer: IC50 (second compound 0.0316 µM): 5.05 µM; IC50 (second compound 0.1 µM): 7.26 µM; IC50 (second compound 0.316 µM): 4.35 µM; IC50 (second compound 1 µM): 5.27 µM; IC50 (second compound 3.16 µM): 4.78 µM; IC50 (second compound 10 µM): 5.91 µM; viability, T/C [1]: 97.6%; viability, T/C [2]: 103%; viability, T/C [3]: 101%; viability, T/C [4]: 93.8%; viability, T/C [5]: 76.5%; viability, T/C [6]: 12%; viability, T/C [7]: 77%; viability, T/C [8]: 112%; viability, T/C [9]: 101%; viability, T/C [10]: 106%; viability, T/C [11]: 103%; viability, T/C [12]: 30.7%; viability, T/C [13]: 119%; viability, T/C [14]: 102%; viability, T/C [15]: 114%; viability, T/C [16]: 82%; viability, T/C [17]: 64.7%; viability, T/C [18]: 18.1%; viability, T/C [19]: 121%; viability, T/C [20]: 99.5%; viability, T/C [21]: 105%; viability, T/C [22]: 107%; viability, T/C [23]: 82.7%; viability, T/C [24]: 9.05%; viability, T/C [25]: 106%; viability, T/C [26]: 95.3%; viability, T/C [27]: 79.1%; viability, T/C [28]: 82.8%; viability, T/C [29]: 78.3%; viability, T/C [30]: 5.59%; viability, T/C [31]: 111%; viability, T/C [32]: 104%; viability, T/C [33]: 97.7%; viability, T/C [34]: 95.9%; viability, T/C [35]: 114%; viability, T/C [36]: 4.03%
